From paper PMC11022681 (Journal of the American Chemical Society, 2023) come the findings set out here.

A short description of this experiment: Kinetic inertness: transmetalation with excess Zn2+. The format is physicochemical. As to conditions: 25 equivalents of Zn2+, 37 °C, pH 6.0 MES buffer.

For Mn-PyC3A, the “pseudo-first-order rate constant of transmetalation” value is listed as 5.5 ± 0.4 ×10^−4 s^−1.
